Measured values as given in patent US12336981B2, “Compounds and compositions for the inhibition of NAMPT” (Valo Health, Inc., priority 2010, dated 2025).
Like-named read-outs stand apart in the source and are kept apart here.

Assays:
NAMPT = target: T1, NAMPT (Homo sapiens, UniProt P43490); experiment: Biochemical inhibition assay: NAMPT enzymatic reaction, NMN quantified by mass spectrometry; details: read-out: Biochem IC50
T1 construct: His tag; host or cells: E. coli
How it was run: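 Inhibition of E. coli-expressed His-tagged human NAMPT, measured as NMN formation by mass spectrometry after a 30 min room-temperature reaction containing 1 μM NAM, 100 μM PRPP and 2.5 mM ATP.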

A2780 cells = experiment: In-vitro cell proliferation assay (SRB), A2780 cells; assay type: cell-based; details: A2780 cells, 72 hours, read-out: A2780 IC50
How it was run: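 Cells were plated overnight at 37° C., 5% CO2, then exposed to serially diluted compounds (0.1% DMSO final) for 72 hours. Viable cells were measured by sulforhodamine B staining after TCA fixation, read at 570 nm; media-only background was subtracted before % inhibition was calculated.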

[1] = Homo sapiens, A2780, 72 h, SRB assay

T1 sequence (P43490 whole entry): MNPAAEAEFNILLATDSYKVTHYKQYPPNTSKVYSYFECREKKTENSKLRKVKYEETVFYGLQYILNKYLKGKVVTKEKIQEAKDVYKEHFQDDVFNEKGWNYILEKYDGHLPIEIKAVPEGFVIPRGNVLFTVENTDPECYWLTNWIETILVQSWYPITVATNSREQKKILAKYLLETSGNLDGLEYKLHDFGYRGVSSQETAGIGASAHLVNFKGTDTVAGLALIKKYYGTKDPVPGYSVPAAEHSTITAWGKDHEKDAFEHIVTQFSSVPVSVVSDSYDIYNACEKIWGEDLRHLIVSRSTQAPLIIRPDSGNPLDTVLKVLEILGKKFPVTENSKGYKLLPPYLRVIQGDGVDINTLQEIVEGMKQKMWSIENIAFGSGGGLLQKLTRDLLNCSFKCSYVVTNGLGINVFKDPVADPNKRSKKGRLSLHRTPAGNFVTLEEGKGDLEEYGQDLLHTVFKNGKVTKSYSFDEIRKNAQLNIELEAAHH

SMILES | IC50 (NAMPT; NAMPT enzymatic reaction) [nM] | IC50 (NAMPT; NAMPT enzymatic assay) [nM] | IC50 (A2780 cells; Homo sapiens, A2780, 72 h, SRB) [nM] | further results
Cc1ccc(S(=O)(=O)c2ccc(CNC(=O)c3cc4cnccc4[nH]3)cc2)cc1 [N-({4-[(4-methylbenzene)sulfonyl]phenyl}methyl)-1H-pyrrolo[3,2-c]pyridine-2-carboxamide] | 6 | – | – | IC50 (A2780 cells; [1]): 9 nM
CNS(=O)(=O)c1ccccc1S(=O)(=O)c1ccc(CNC(=O)c2cnc3nccn3c2)cc1 | – | 30.4 | 1000 to 10000 | –
Cc1cc(C)cc(S(=O)(=O)c2ccc(CNC(=O)c3cnc4nccn4c3)cc2)c1 | 1.7 | – | 2 | –
CCc1ccc(S(=O)(=O)c2ccc(CNC(=O)c3cnc4nccn4c3)cc2)cc1 | 1.2 | – | 6.2 | –
COc1cc(S(=O)(=O)c2ccc(CNC(=O)c3cc4ccncc4o3)cc2)ccc1C | 4.6 | – | 3.1 | –
Cc1ccc(C)c(S(=O)(=O)c2ccc(CNC(=O)c3cnc4[nH]ncc4c3)cc2)c1 [N-({4-[(2,5-dimethylbenzene)sulfonyl]phenyl}methyl)-1H-pyrazolo[3,4-b]pyridine-5-carboxamide] | 20.9 | – | 17.2 | –
O=C(NCc1ccc(S(=O)(=O)c2ccc(Cl)cc2)cc1)c1cnc2[nH]ncc2c1 [N-({4-[(4-chlorobenzene)sulfonyl]phenyl}methyl)-1H-pyrazolo[3,4-b]pyridine-5-carboxamide] | 28.8 | – | 22 | –
N#Cc1cccc(S(=O)(=O)c2ccc(CNC(=O)c3cnc4[nH]ncc4c3)cc2)c1 [N-({4-[(3-cyanobenzene)sulfonyl]phenyl}methyl)-1H-pyrazolo[3,4-b]pyridine-5-carboxamide] | 18.5 | – | 9.54 | –
O=C(NCc1ccc(S(=O)(=O)Nc2ccc(Cl)cc2OC(F)(F)F)cc1)c1cc2cnccc2[nH]1 [N-[(4-{[4-chloro-2-(trifluoromethoxy)phenyl]sulfamoyl}phenyl)methyl]-1H-pyrrolo[3,2-c]pyridine-2-carboxamide] | 2 | – | – | IC50 (A2780 cells; [1]): 2 nM
O=C(NCc1ccc(S(=O)(=O)c2cccc(-n3cccn3)c2)cc1)c1cc2ccncc2s1 [N-[(4-{[3-(1H-pyrazol-1-yl)benzene]sulfonyl}phenyl)methyl]thieno[2,3-c]pyridine-2-carboxamide] | – | 1.5 | 0.1 | –
Cc1ccc(S(=O)(=O)c2ccc(CNC(=O)c3cc4ccncc4o3)cc2)c(Cl)c1 | 14.1 | – | 14.2 | –
O=C(NCc1ccc(S(=O)(=O)c2cccc(N3CCCCC3)c2)cc1)c1cc2cnccc2[nH]1 | – | 14.4 | 3.3 | –
COc1ccc(Cl)c(S(=O)(=O)c2ccc(CNC(=O)c3cc4ccncc4s3)cc2)c1 | 4.9 | – | 5.3 | –
Cc1cc(C)n(-c2cccc(S(=O)(=O)c3ccc(CNC(=O)c4cc5cc(O)ccc5[nH]4)cc3)c2)n1 | – | 100 to 1000 | 100 to 1000 | –
CN(C)C(=O)c1ccccc1S(=O)(=O)c1ccc(CNC(=O)c2cc3ccncc3s2)cc1 | – | 100 to 1000 | 100 to 1000 | –
Cc1nc(S(=O)(=O)c2ccc(CNC(=O)c3cc4ccncc4s3)cc2)ccc1F [N-{[4-(5-fluoro-6-methylpyridine-2-sulfonyl)phenyl]methyl}thieno[2,3-c]pyridine-2-carboxamide] | – | 8.3 | 7.1 | –
O=C(NCc1ccc(S(=O)(=O)c2cccc(OC(F)(F)F)c2)cc1)c1cnc2[nH]ncc2c1 | – | 20.4 | 7.1 | –
COc1c(F)cccc1S(=O)(=O)c1ccc(CNC(=O)c2cnc3[nH]ncc3c2)cc1 [N-({4-[(3-fluoro-2-methoxybenzene)sulfonyl]phenyl}methyl)-1H-pyrazolo[3,4-b]pyridine-5-carboxamide] | 121 | – | 100 to 1000 | –
COc1c(F)cccc1S(=O)(=O)c1ccc(CNC(=O)c2ccc3nccn3c2)cc1 [N-({4-[(3-fluoro-2-methoxybenzene)sulfonyl]phenyl}methyl)imidazo[1,2-a]pyridine-6-carboxamide] | 76.9 | – | 65 | –
O=C(NCc1ccc(S(=O)(=O)c2ccccc2CN2CCOCC2)cc1)c1ccc2nccn2c1 [N-[(4-{[2-(morpholin-4-ylmethyl)benzene]sulfonyl}phenyl)methyl]imidazo[1,2-a]pyridine-6-carboxamide] | – | 136 | 34.2 | –
CN(C)C(=O)c1ccccc1S(=O)(=O)c1ccc(CNC(=O)c2cnc3nccn3c2)cc1 [N-[(4-{[2-(dimethylcarbamoyl)benzene]sulfonyl}phenyl)methyl]imidazo[1,2-a]pyrimidine-6-carboxamide] | – | 100 to 1000 | 1000 to 10000 | –
COc1cc(-n2cccn2)ccc1S(=O)(=O)c1ccc(CNC(=O)c2cnc3[nH]ncc3c2)cc1 | – | 24.2 | 9.4 | –
O=C(NCc1ccc(S(=O)(=O)c2cc(Cl)cc(CO)c2)cc1)c1cc2ccncc2s1 | – | – | – | IC50 (NAMPT): 3.3 nM; IC50 (A2780 cells; SRB): 0.8 nM
O=C(NCc1ccc(S(=O)(=O)c2cccc(Cl)c2)cc1)c1cnc2[nH]ncc2c1 [N-({4-[(3-chlorobenzene)sulfonyl]phenyl}methyl)-1H-pyrazolo[3,4-b]pyridine-5-carboxamide] | 7 | – | 6 | –

SMILES | IC50 (NAMPT; NAMPT enzymatic reaction) [nM] | IC50 (NAMPT; NAMPT enzymatic assay) [nM] | IC50 (A2780 cells; Homo sapiens, A2780, 72 h, SRB) [nM] | further results
O=C(NCc1ccc(S(=O)(=O)c2cccc(-c3ccccc3)c2)cc1)c1cc2ccncc2o1 [N-({4-[(3-phenylbenzene)sulfonyl]phenyl}methyl)furo[2,3-c]pyridine-2-carboxamide] | 13.7 | – | 23.4 | –
COc1cc(S(=O)(=O)c2ccc(CNC(=O)c3cc4cnccc4[nH]3)cc2)ccc1Cl | 5.5 | – | 3.6 | –
COc1cc(C)cc(OC)c1S(=O)(=O)c1ccc(CNC(=O)c2cnc3[nH]ncc3c2)cc1 | 100 to 1000 | – | 100 to 1000 | –
O=C(NCc1ccc(S(=O)(=O)c2cc(Cl)ccc2OCC(F)F)cc1)c1cc2cnccc2[nH]1 | – | 5 | 0.5 | –
O=C(NCc1ccc(S(=O)(=O)c2cc(O)ccc2OC(F)(F)F)cc1)c1cnc2[nH]ncc2c1 | – | 21.9 | 67.9 | –
O=C(NCc1ccc(S(=O)(=O)c2cc(F)ccc2CO)cc1)c1ccc2nccn2c1 | – | 10.4 | 65 | –
Cc1ccc(S(=O)(=O)c2ccc(CNC(=O)c3cc4cnccc4[nH]3)cc2)c(Cl)c1 | 8 | – | 2.7 | –
N#Cc1cccc(S(=O)(=O)c2ccc(CNC(=O)c3cc4ccncc4s3)cc2)c1 | 3.5 | – | 5.6 | –
Cc1ccccc1S(=O)(=O)c1ccc(CNC(=O)c2cc3cnccc3[nH]2)cc1 [N-({4-[(2-methylbenzene)sulfonyl]phenyl}methyl)-1H-pyrrolo[3,2-c]pyridine-2-carboxamide] | 14 | – | – | IC50 (A2780 cells; [1]): 13 nM
CC(C)Oc1ccc(Cl)cc1S(=O)(=O)c1ccc(CNC(=O)c2cc3ccncc3o2)cc1 | – | 9.1 | 12.1 | –
Cc1cc(Cl)ccc1S(=O)(=O)c1ccc(CNC(=O)c2cnc3nccn3c2)cc1 | 6.6 | – | 53.9 | –
Cc1cc(Cl)cnc1S(=O)(=O)c1ccc(CNC(=O)c2cc3ccncc3o2)cc1 [N-{[4-(5-chloro-3-methylpyridine-2-sulfonyl)phenyl]methyl}furo[2,3-c]pyridine-2-carboxamide] | – | 9.9 | 16.5 | –
Cc1c(Cl)cccc1S(=O)(=O)c1ccc(CNC(=O)c2ccc3nccn3c2)cc1 | 25.7 | – | 5 | –
CCc1cccc(S(=O)(=O)c2ccc(CNC(=O)c3cnc4[nH]ncc4c3)cc2)c1 | 7 | – | 7.1 | –
CC(C)COc1cc(F)cc(S(=O)(=O)c2ccc(CNC(=O)c3cnc4nccn4c3)cc2)c1 | – | 3.1 | 3.4 | –
Cc1ccc(F)cc1S(=O)(=O)c1ccc(CNC(=O)c2cnc3[nH]ncc3c2)cc1 [N-({4-[(5-fluoro-2-methylbenzene)sulfonyl]phenyl}methyl)-1H-pyrazolo[3,4-b]pyridine-5-carboxamide] | 20.4 | – | 59.7 | –
Cc1ccc(S(=O)(=O)c2ccc(CNC(=O)c3ccc4nccn4c3)cc2)c(F)c1 [N-({4-[(2-fluoro-4-methylbenzene)sulfonyl]phenyl}methyl)imidazo[1,2-a]pyridine-6-carboxamide] | 21.4 | – | 24.7 | –
O=C(NCc1ccc(S(=O)(=O)c2cncc(C(F)(F)F)c2)cc1)c1ccc2nccn2c1 [N-({4-[5-(trifluoromethyl)pyridine-3-sulfonyl]phenyl}methyl)imidazo[1,2-a]pyridine-6-carboxamide] | – | 9 | 1.3 | –
CCN(C)c1ncc(S(=O)(=O)c2ccc(CNC(=O)c3cc4ccncc4o3)cc2)s1 [N-[(4-{2-[ethyl(methyl)amino]-1,3-thiazole-5-sulfonyl}phenyl)methyl]furo[2,3-c]pyridine-2-carboxamide] | – | 4.8 | 0.9 | –
Cc1ccc(S(=O)(=O)c2ccc(CNC(=O)c3ccc4nccn4c3)cc2)c(C)c1 [N-({4-[(2,4-dimethylbenzene)sulfonyl]phenyl}methyl)imidazo[1,2-a]pyridine-6-carboxamide] | 21.6 | – | 32.1 | –
O=C(NCc1ccc(S(=O)(=O)c2cccc(N3CCCCC3)c2)cc1)c1cc2ccncc2s1 | – | 16.7 | 13.6 | –
CCOc1ccccc1S(=O)(=O)c1ccc(CNC(=O)c2ccc3nccn3c2)cc1 [N-({4-[(2-ethoxybenzene)sulfonyl]phenyl}methyl)imidazo[1,2-a]pyridine-6-carboxamide] | 20.3 | – | 3.39 | –
O=C(NCc1ccc(S(=O)(=O)c2ccc3ncccc3c2)cc1)c1cc2ccncc2o1 [N-{[4-(quinoline-6-sulfonyl)phenyl]methyl}furo[2,3-c]pyridine-2-carboxamide] | – | 7.3 | 5 | –
O=C(NCc1ccc(S(=O)(=O)c2ccc(F)c(OCC(F)(F)F)c2)cc1)c1cc2ccncc2s1 | – | 3.3 | 11.8 | –
